Assay results as given in paper PMC2806265, “Divergence of allosteric effects of rapacuronium on binding and function of muscarinic receptors” (BMC Pharmacology, 2009).
pEC50: −log10 of the molar value. Marks after values point to notes of the source that are not given here.

Key:
[1] = molecular target: T1, M5 muscarinic receptor (Homo sapiens, UniProt P08912); assay: Effect of rapacuronium on high-affinity 20 nM [3H]ACh binding; parameters: host or cells: CHO cells, stably transfected; membranes
T1 sequence (P08912 1-532): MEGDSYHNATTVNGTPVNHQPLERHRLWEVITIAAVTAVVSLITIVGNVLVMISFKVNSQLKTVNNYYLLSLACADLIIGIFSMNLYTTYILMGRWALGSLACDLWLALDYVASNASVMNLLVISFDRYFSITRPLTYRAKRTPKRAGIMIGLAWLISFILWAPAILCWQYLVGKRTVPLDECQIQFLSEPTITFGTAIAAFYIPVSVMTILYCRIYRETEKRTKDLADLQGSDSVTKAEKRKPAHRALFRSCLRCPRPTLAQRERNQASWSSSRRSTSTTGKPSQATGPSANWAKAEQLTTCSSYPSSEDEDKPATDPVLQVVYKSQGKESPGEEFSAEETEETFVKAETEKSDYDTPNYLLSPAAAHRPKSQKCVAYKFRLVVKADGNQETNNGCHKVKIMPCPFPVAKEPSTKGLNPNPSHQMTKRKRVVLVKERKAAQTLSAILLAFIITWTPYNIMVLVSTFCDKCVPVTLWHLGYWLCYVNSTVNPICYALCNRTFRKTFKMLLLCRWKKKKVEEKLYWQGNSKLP
Excerpt: (§1) Cooperativity factor greater than 1 denotes negative cooperativity and less than 1 positive cooperativity. Due to its log-normal error distribution factors of cooperativity are expressed as negative logarithms (pα) through the manuscript so negative values denotes negative cooperativity and positive value denotes positive cooperativity.

[2] = molecular target: T2, M4 muscarinic receptor (Homo sapiens, UniProt P08173); assay: as above; parameters: host or cells: CHO cells, stably transfected; membranes
T2 sequence (P08173 1-479): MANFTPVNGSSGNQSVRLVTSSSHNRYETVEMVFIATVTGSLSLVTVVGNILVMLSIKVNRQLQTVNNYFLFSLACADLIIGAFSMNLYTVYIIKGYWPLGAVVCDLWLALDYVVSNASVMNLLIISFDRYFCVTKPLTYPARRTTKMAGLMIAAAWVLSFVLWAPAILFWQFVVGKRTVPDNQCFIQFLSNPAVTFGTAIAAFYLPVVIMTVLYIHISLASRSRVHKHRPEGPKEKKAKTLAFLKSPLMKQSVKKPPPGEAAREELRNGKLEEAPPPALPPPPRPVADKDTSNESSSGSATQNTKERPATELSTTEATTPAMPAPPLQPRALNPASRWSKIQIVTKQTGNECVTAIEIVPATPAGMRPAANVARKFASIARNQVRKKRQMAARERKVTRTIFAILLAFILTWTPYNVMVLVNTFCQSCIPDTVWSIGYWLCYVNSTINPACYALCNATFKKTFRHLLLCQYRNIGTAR
Excerpt: as §1

[3] = molecular target: T1, M5 muscarinic receptor; assay: [35S]GTPγS binding to membranes; format: biochemical; parameters: host or cells: CHO cells, stably transfected; membranes; settings: for EMAX of ACh on [^35S]GTPγS binding: fold of basal
Experimental: (§2) For determination of [^35S]GTPγS binding to G-proteins in membranes a final concentration of 200 pM (M1, M3 and M5 receptors) or 500 pM (M2 and M4 receptors) of [^35S]GTPγS was used. Incubation medium was supplemented with 5 μM (M1, M3 and M5 receptors) or 50 μM (M2 and M4 receptors) GDP. […] Incubation with [^35S]GTPγS was carried out for 20 min and free ligand was removed by filtration as described above. Filtration and washing with ice-cold water lasted for 9 s (wash-aspirate button time).

[4] = molecular target: T2, M4 muscarinic receptor; assay: [3H]NMS dissociation; settings: + 100 μM rapacuronium
Excerpt: (§3) y, radioligand binding at time x normalized to binding at time 0; koff1 and koff2, dissociation rate constants; f2, fraction of binding site with dissociation rate constant koff2. When both Eq. 7a and 7b were fitted to data the better fit was chosen based on sum of squares F-test and runs test.

[5] = molecular target: T3, M2 muscarinic receptor (Homo sapiens, UniProt P08172); assay: [3H]ACh saturation binding; parameters: host or cells: CHO cells, stably transfected; membrane preparation
T3 sequence (P08172 1-466): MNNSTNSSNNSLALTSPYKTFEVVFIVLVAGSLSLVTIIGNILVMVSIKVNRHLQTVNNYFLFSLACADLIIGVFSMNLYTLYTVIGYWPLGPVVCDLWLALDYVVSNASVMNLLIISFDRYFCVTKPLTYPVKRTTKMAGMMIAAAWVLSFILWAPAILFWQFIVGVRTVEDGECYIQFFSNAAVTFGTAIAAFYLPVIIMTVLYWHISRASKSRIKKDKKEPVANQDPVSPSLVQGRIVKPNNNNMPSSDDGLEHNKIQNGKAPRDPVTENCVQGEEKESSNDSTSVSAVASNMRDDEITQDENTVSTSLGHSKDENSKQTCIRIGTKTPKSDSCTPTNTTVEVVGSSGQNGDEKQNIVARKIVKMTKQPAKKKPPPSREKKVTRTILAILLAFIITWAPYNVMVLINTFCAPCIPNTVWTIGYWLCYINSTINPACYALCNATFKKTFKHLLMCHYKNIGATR
Excerpt: BMAX, maximum binding capacity; KD, equilibrium dissociation constant.

[6] = molecular target: T2, M4 muscarinic receptor; assay: [35S]GTPγS binding to membranes; format: biochemical; parameters: host or cells: CHO cells, stably transfected; membranes; settings: for EMAX of ACh on [^35S]GTPγS binding: fold of basal
Experimental: as §2

[7] = molecular target: T1, M5 muscarinic receptor; assay: [3H]NMS dissociation
Excerpt: as §3

[8] = molecular target: T3, M2 muscarinic receptor; assay: [3H]NMS saturation binding
[9] = molecular target: T4, M3 muscarinic receptor (Homo sapiens, UniProt P20309); format: biochemical; settings: CHO-M3 membranes
T4 construct: host or cells: CHO cells, stably transfected; membranes
T4 sequence (P20309 whole entry): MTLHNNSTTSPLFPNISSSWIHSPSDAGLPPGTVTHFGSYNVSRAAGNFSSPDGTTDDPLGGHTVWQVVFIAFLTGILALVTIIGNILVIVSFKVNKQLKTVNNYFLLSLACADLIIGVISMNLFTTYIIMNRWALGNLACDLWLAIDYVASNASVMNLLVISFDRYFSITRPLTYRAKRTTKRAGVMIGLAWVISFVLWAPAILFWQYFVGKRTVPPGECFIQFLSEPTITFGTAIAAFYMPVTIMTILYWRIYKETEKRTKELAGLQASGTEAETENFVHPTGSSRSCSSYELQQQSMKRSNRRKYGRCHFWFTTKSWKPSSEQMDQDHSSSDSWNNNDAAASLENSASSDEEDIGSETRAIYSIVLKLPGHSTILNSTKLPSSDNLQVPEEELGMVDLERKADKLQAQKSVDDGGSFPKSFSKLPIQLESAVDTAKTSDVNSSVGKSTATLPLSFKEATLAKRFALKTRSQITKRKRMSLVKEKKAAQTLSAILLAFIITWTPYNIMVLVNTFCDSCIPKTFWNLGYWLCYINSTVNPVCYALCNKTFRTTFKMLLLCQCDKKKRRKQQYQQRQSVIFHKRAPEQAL
Excerpt: Time course of association(6) [drawing 6]
y, radioligand binding at time x; kobs, observed rate of association; equilibrium binding Beq = Bottom + Span.

[10] = read-out: pKA of rapacuronium (converted)

For `C=CC[N+]1([C@H]2C[C@H]3[C@@H]4CC[C@H]5C[C@H](OC(C)=O)[C@@H](N6CCCCC6)C[C@]5(C)[C@H]4CC[C@]3(C)[C@H]2OC(=O)CC)CCCCC1` [rapacuronium], the “pα, cooperativity with [^3H]ACh high affinity binding” value ([1]; M5, negative value = negative cooperativity) was -1.34 ± 0.07, the Kd [1, 10] was 12 µM and the “pα, cooperativity with [^3H]ACh high affinity binding” value ([2]; M4, negative value = negative cooperativity) was -1.51 ± 0.05. The Kd [2, 10] was 3.89 µM, the pEC50 [3] was 4.21 and the “decrease in ACh EC50” value ([3]; M5, 0.1 μM rapacuronium) was 1.5 fold. For the same molecule, the “decrease in ACh EC50” value ([3]; M5, 1 μM rapacuronium) was 4 fold, the “EMAX of ACh on [^35S]GTPγS binding” value ([3]; M5, + 0.1 μM rapacuronium) was 2.10 ± 0.09 and the “EMAX of ACh on [^35S]GTPγS binding” value ([3]; M5, + 1 μM rapacuronium) was 2.04 ± 0.09. The “EMAX of ACh on [^35S]GTPγS binding” value ([3]; M5, + 10 μM rapacuronium) was 2.22 ± 0.09, the “EMAX of rapacuronium on [^35S]GTPγS binding” value ([3]; M5, rapacuronium alone, normalized to absence of rapacuronium) was 0.75 ± 0.07 and the “f2, fraction of sites with faster dissociation” value [4] was 6.0 ± 2.0%. For the same molecule, the “koff1 of [^3H]NMS dissociation” value [4] was 0.017 ± 0.001* min^-1, the “koff2 of [^3H]NMS dissociation” value [4] was 0.0125 ± 0.00183 s⁻¹ and the “BMAX of [^3H]ACh” value ([5]; + 10 μM rapacuronium) was 0.74 ± 0.07 fmol/μg of protein. The “BMAX of [^3H]ACh” value ([5]; + 100 μM rapacuronium) was 0.77 ± 0.08 fmol/μg of protein, the pEC50 [6] was 4.44 and the “EMAX of ACh on [^35S]GTPγS binding” value ([6]; M4, + 0.1 μM rapacuronium) was 2.95 ± 0.11. For the same molecule, the “EMAX of ACh on [^35S]GTPγS binding” value ([6]; M4, + 1 μM rapacuronium) was 2.80 ± 0.12, the “EMAX of ACh on [^35S]GTPγS binding” value ([6]; M4, + 10 μM rapacuronium) was 2.32 ± 0.16 and the “EMAX of rapacuronium on [^35S]GTPγS binding” value ([6]; M4, rapacuronium alone, normalized to absence of rapacuronium) was 0.86 ± 0.06. The “decrease in rate of [^3H]NMS dissociation” value ([7]; 100 μM rapacuronium) was 40%, the “koff1 of [^3H]NMS dissociation” value ([7]; + 100 μM rapacuronium, monophasic) was 0.0078 ± 0.0004* min^-1 and the “BMAX of [^3H]NMS” value ([8]; + 10 μM rapacuronium) was 1.62 ± 0.14 fmol/μg of protein. The “BMAX of [^3H]NMS” value ([8]; + 100 μM rapacuronium) was 1.66 ± 0.14 fmol/μg of protein, the “effect on rate of [^35S]GTPγS binding” value ([9]; 1 μM rapacuronium alone) was “slightly decreased” and the “increase in [^35S]GTPγS binding at 5 min incubation” value ([9]; 10 μM ACh + 1 μM rapacuronium) was about 5 fold. The “observed rate (kobs) of [^35S]GTPγS binding” value ([9]; 10 μM ACh + 1 μM rapacuronium) was 0.166 ± 0.013 min⁻¹ and the “estimated [^35S]GTPγS equilibrium binding (Beq)” value ([9]; 10 μM ACh with 1 μM rapacuronium) was 9,980 ± 120 cpm per well.
